Laboratory results: PMC12482042, “Targeting galectin-3 in cancer by novel and unique inhibitors of non-carbohydrate origin” (Molecular Medicine, 2025)
Like-named read-outs stand apart in the source and are kept apart here.

Columns and labels:
[1] = biological target: T1, galectin-3 (Homo sapiens, UniProt P17931); assay: intrinsic tryptophan fluorescence spectroscopy titration; also competitive ELISA against asialo-fetuin (IC50 […]) and CD; format: binding
T1 construct: gene LGALS3; human recombinant galectin-3 expressed in E. coli

[2] = biological target: T1, galectin-3; assay: as above; format: binding; remark: listed apart in the source

T1 sequence (P17931 2-250): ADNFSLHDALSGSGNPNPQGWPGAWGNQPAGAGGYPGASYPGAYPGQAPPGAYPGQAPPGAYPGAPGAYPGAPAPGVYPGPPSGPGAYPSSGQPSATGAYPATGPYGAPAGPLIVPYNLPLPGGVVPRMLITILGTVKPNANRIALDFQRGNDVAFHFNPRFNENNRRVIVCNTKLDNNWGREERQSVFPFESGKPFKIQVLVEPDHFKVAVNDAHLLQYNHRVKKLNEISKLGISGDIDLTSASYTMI

Row | Kd [1] [µM] | Kd [2] [µM] | SMILES
1 | 18.1 ± 1.5 | – | C[C@H]1COc2c(N3CCN(C)CC3)c(F)cc3c(=O)c(C(=O)NNc4ccc(N)cc4)cn1c23 [K2]
2 | – | 30.2 ± 1.4 | C[C@H]1COc2c(N3CCN(C)CC3)c(F)cc3c(=O)c(C(=O)NNc4cccc(N)c4)cn1c23 [L2]
